Measurements from paper PMC5218480 (PLoS ONE, 2017).

System: MV-4-11 cells
Test: Gene expression microarray analysis (Affymetrix PrimeView) and GSEA
Format: cell-based, human
Parameters: RFU PODN (11730768_x_at) / Fold change /veh PODN (11730768_x_at) / RFU LINC00158 (11744669_a_at) / Fold change /veh LINC00158 (11744669_a_at) / RFU DUSP10 (11751237_a_at) / Fold change /veh DUSP10 (11751237_a_at) / RFU ID3 (11757404_x_at) / Fold change /veh ID3 (11757404_x_at) / RFU PLEKHG5 (11737974_s_at) / Fold change /veh PLEKHG5 (11737974_s_at) / RFU LRRC4B (11730491_at) / Fold change /veh LRRC4B (11730491_at) / RFU GIMAP4 (11747438_a_at) / Fold change /veh GIMAP4 (11747438_a_at) / RFU KRT8 (11758183_x_at) / Fold change /veh KRT8 (11758183_x_at) / RFU CNN1 (11734310_a_at) / Fold change /veh CNN1 (11734310_a_at) / RFU VPS37D (11726825_at) / Fold change /veh VPS37D (11726825_at) / RFU C10orf10 (11716522_x_at) / Fold change /veh C10orf10 (11716522_x_at) / RFU KIR2DL2 /// KIR2DL4 /// KIR2DL5A /// KIR2DL5B /// KIR2DS1 /// KIR2DS2 /// KIR2DS3 /// KIR2DS4 /// KIR3DL3 /// KIR3DL3 /// KIR3DS1 (11738374_at) / Fold change /veh KIR2DL2 /// KIR2DL4 /// KIR2DL5A /// KIR2DL5B /// KIR2DS1 /// KIR2DS2 /// KIR2DS3 /// KIR2DS4 /// KIR3DL3 /// KIR3DL3 /// KIR3DS1 (11738374_at) / RFU C1QL1 (11718748_at) / Fold change /veh C1QL1 (11718748_at) / RFU TMPRSS4 (11747572_a_at) / Fold change /veh TMPRSS4 (11747572_a_at) / RFU HAMP (11756126_x_at) / Fold change /veh HAMP (11756126_x_at) / RFU RNFT2 (11725882_a_at) / Fold change /veh RNFT2 (11725882_a_at) / RFU NR4A2 (11747474_a_at) / Fold change /veh NR4A2 (11747474_a_at) / RFU ABCC12 (11746883_a_at) / Fold change /veh ABCC12 (11746883_a_at) / RFU TMEM136 (11760407_x_at) / Fold change /veh TMEM136 (11760407_x_at) / RFU CLDN22 /// WWC2 (11732394_at) / Fold change /veh CLDN22 /// WWC2 (11732394_at) / RFU HLA-DPB1 (11760878_x_at) / Fold change /veh HLA-DPB1 (11760878_x_at) / RFU SPINT1 (11716480_a_at) / Fold change /veh SPINT1 (11716480_a_at) / RFU GAP43 (11754022_s_at) / Fold change /veh GAP43 (11754022_s_at) / RFU A4GNT (11735810_at) / Fold change /veh A4GNT (11735810_at) / RFU PRB3 (11715151_x_at) / Fold change /veh PRB3 (11715151_x_at) / RFU TUBB4B (11761932_at) / Fold change /veh TUBB4B (11761932_at) / RFU CAPN14 (11732068_a_at) / Fold change /veh CAPN14 (11732068_a_at) / RFU TMCC2 (11721928_a_at) / Fold change /veh TMCC2 (11721928_a_at) / RFU IRGQ (11745062_a_at) / Fold change /veh IRGQ (11745062_a_at) / RFU FAM174B (11720279_a_at) / Fold change /veh FAM174B (11720279_a_at) / RFU TMPRSS4 (11748680_a_at) / Fold change /veh TMPRSS4 (11748680_a_at) / RFU FAM212B (11763350_a_at) / Fold change /veh FAM212B (11763350_a_at) / RFU PLEKHG5 (11743358_a_at) / Fold change /veh PLEKHG5 (11743358_a_at) / RFU ZSCAN30 (11745921_a_at) / Fold change /veh ZSCAN30 (11745921_a_at) / RFU CMKLR1 (11741424_a_at) / Fold change /veh CMKLR1 (11741424_a_at) / RFU LOC101060620 /// MAPK8IP1 (11723275_at) / Fold change /veh LOC101060620 /// MAPK8IP1 (11723275_at) / RFU SPTSSB (11747773_x_at) / Fold change /veh SPTSSB (11747773_x_at) / RFU PRSS12 (11739890_at) / Fold change /veh PRSS12 (11739890_at) / RFU BIN1 (11741810_x_at) / Fold change /veh BIN1 (11741810_x_at) / RFU WNT11 (11732464_a_at) / Fold change /veh WNT11 (11732464_a_at) / RFU C10orf10 (11716521_a_at) / Fold change /veh C10orf10 (11716521_a_at) / RFU C5orf56 (11738089_at) / Fold change /veh C5orf56 (11738089_at) / RFU CYB561 (11721691_x_at) / Fold change /veh CYB561 (11721691_x_at) / RFU ANKRD19P (11752326_a_at) / Fold change /veh ANKRD19P (11752326_a_at) / RFU OR2T12 /// OR2T33 /// OR2T8 (11738714_s_at) / Fold change /veh OR2T12 /// OR2T33 /// OR2T8 (11738714_s_at) / RFU VCAN (11748164_a_at) / Fold change /veh VCAN (11748164_a_at) / RFU JSRP1 (11732532_at) / Fold change /veh JSRP1 (11732532_at) / RFU KRTAP10-11 (11738290_x_at) / Fold change /veh KRTAP10-11 (11738290_x_at) / RFU MYO3A (11730013_a_at) / Fold change /veh MYO3A (11730013_a_at) / RFU EBF3 (11725865_a_at) / Fold change /veh EBF3 (11725865_a_at) / RFU CAMK2N1 (11719241_x_at) / Fold change /veh CAMK2N1 (11719241_x_at) / RFU C5orf56 (11738088_a_at) / Fold change /veh C5orf56 (11738088_a_at) / RFU OLFML3 (11715873_a_at) / Fold change /veh OLFML3 (11715873_a_at) / RFU LOC100653217 /// NTM (11731650_a_at) / Fold change /veh LOC100653217 /// NTM (11731650_a_at) / RFU MAPK11 (11762145_a_at) / Fold change /veh MAPK11 (11762145_a_at) / RFU FIZ1 (11724087_x_at) / Fold change /veh FIZ1 (11724087_x_at) / RFU OASL (11726364_x_at) / Fold change /veh OASL (11726364_x_at) / RFU SOX15 (11748057_x_at) / Fold change /veh SOX15 (11748057_x_at) / RFU CD79A (11719716_a_at) / Fold change /veh CD79A (11719716_a_at) / RFU HIST1H1D (11736915_at) / Fold change /veh HIST1H1D (11736915_at) / RFU CASKIN2 (11723855_a_at) / Fold change /veh CASKIN2 (11723855_a_at) / RFU LOC730098 (11760151_x_at) / Fold change /veh LOC730098 (11760151_x_at) / RFU OR4N2 (11742367_at) / Fold change /veh OR4N2 (11742367_at) / RFU PRRT2 (11749266_a_at) / Fold change /veh PRRT2 (11749266_a_at) / RFU SNX32 (11753110_a_at) / Fold change /veh SNX32 (11753110_a_at) / RFU CDHR5 (11726645_a_at) / Fold change /veh CDHR5 (11726645_a_at) / RFU RCAN1 (11760418_a_at) / Fold change /veh RCAN1 (11760418_a_at) / RFU FAM167A (11723789_a_at) / Fold change /veh FAM167A (11723789_a_at) / RFU FAM26E (11764081_at) / Fold change /veh FAM26E (11764081_at) / RFU ISYNA1 (11749810_s_at) / Fold change /veh ISYNA1 (11749810_s_at) / RFU ACY1 (11761880_at) / Fold change /veh ACY1 (11761880_at) / RFU 11764098_at / Fold change /veh 11764098_at / RFU SAMD14 (11745864_x_at) / Fold change /veh SAMD14 (11745864_x_at) / RFU NPB (11741838_a_at) / Fold change /veh NPB (11741838_a_at) / RFU TMPRSS6 (11731388_a_at) / Fold change /veh TMPRSS6 (11731388_a_at) / RFU KRTAP10-2 (11738614_at) / Fold change /veh KRTAP10-2 (11738614_at) / RFU ARHGAP8 /// PRR5-ARHGAP8 (11727945_x_at) / Fold change /veh ARHGAP8 /// PRR5-ARHGAP8 (11727945_x_at) / RFU KRTAP5-7 /// NADSYN1 (11734609_at) / Fold change /veh KRTAP5-7 /// NADSYN1 (11734609_at) / RFU RASL12 (11751679_a_at) / Fold change /veh RASL12 (11751679_a_at) / RFU CDKN2B (11736163_a_at) / Fold change /veh CDKN2B (11736163_a_at) / RFU PRF1 (11729649_at) / Fold change /veh PRF1 (11729649_at) / RFU, ZNF638 /// ZNF638-IT1 / Fold change vs veh, ZNF638 /// ZNF638-IT1 / RFU, PANK3 / Fold change vs veh, PANK3 / RFU, SH3YL1 / Fold change vs veh, SH3YL1 / RFU, ZEB2 / Fold change vs veh, ZEB2 / RFU, NRIP1 / Fold change vs veh, NRIP1 / RFU, PTTG1IP / Fold change vs veh, PTTG1IP / RFU, CAPN2 / Fold change vs veh, CAPN2 / RFU, MED14 / Fold change vs veh, MED14 / RFU, SNORA58 / Fold change vs veh, SNORA58 / RFU, C1orf63 / Fold change vs veh, C1orf63 / RFU, LRRFIP1 / Fold change vs veh, LRRFIP1 / RFU, NDUFAF7 / Fold change vs veh, NDUFAF7 / RFU, SLC12A2 / Fold change vs veh, SLC12A2 / RFU, IBTK / Fold change vs veh, IBTK / RFU, ESF1 / Fold change vs veh, ESF1 / Fold change vs veh, TMEM50B / RFU, TAOK1 / Fold change vs veh, TAOK1 / RFU, ACBD3 / Fold change vs veh, ACBD3 / RFU, TMA16 / Fold change vs veh, TMA16 / RFU, RWDD3 / Fold change vs veh, RWDD3 / RFU, BCAT1 / Fold change vs veh, BCAT1 / RFU, EDEM3 / Fold change vs veh, EDEM3 / RFU, TMEM33 / Fold change vs veh, TMEM33 / RFU, WDR75 / Fold change vs veh, WDR75 / RFU, AHCTF1 / Fold change vs veh, AHCTF1 / RFU, TFRC / Fold change vs veh, TFRC / RFU, ZDHHC17 / Fold change vs veh, ZDHHC17 / RFU, NOM1 / Fold change vs veh, NOM1 / RFU, ARL8B / Fold change vs veh, ARL8B / RFU, ZBTB11 / Fold change vs veh, ZBTB11 / RFU, TAMM41 / Fold change vs veh, TAMM41 / RFU, KIAA1704 /// LOC100996395 / Fold change vs veh, KIAA1704 /// LOC100996395 / RFU, ING1 / Fold change vs veh, ING1 / RFU, TRMT61B / Fold change vs veh, TRMT61B / RFU, FUBP3 / Fold change vs veh, FUBP3 / RFU, TP53 / Fold change vs veh, TP53 / RFU, TNKS2 / Fold change vs veh, TNKS2 / RFU, ZFP14 / Fold change vs veh, ZFP14 / RFU, ACTR2 / Fold change vs veh, ACTR2 / RFU, PPP3R1 / Fold change vs veh, PPP3R1 / RFU, PIK3R1 / Fold change vs veh, PIK3R1 / RFU, HNRNPA1 / Fold change vs veh, HNRNPA1 / RFU, RNF170 / Fold change vs veh, RNF170 / RFU, ZNF28 / Fold change vs veh, ZNF28 / RFU, RNGTT / Fold change vs veh, RNGTT / RFU, OGT / Fold change vs veh, OGT / RFU, BRD1 / Fold change vs veh, BRD1 / RFU, MARS / Fold change vs veh, MARS / RFU, ZNF655 / Fold change vs veh, ZNF655 / RFU, FAHD1 / Fold change vs veh, FAHD1 / RFU, BDP1 / Fold change vs veh, BDP1 / RFU, LRRCC1 / Fold change vs veh, LRRCC1 / RFU, ARID1A / Fold change vs veh, ARID1A / RFU, ZNF146 / Fold change vs veh, ZNF146 / RFU, ZNF330 / Fold change vs veh, ZNF330 / RFU, GPN3 / Fold change vs veh, GPN3 / RFU, C9orf123 / Fold change vs veh, C9orf123 / RFU, N4BP2L2 / Fold change vs veh, N4BP2L2 / RFU, ARFIP1 / Fold change vs veh, ARFIP1 / RFU, FAM179B / Fold change vs veh, FAM179B / RFU, BCL10 / Fold change vs veh, BCL10 / RFU, UHRF1BP1L / Fold change vs veh, UHRF1BP1L / RFU, BET1 / Fold change vs veh, BET1 / RFU, CNOT2 / Fold change vs veh, CNOT2 / RFU, ZNF268 / Fold change vs veh, ZNF268 / Fold change vs veh, ZNF507 / RFU, DGCR2 / Fold change vs veh, DGCR2 / RFU, WDSUB1 / Fold change vs veh, WDSUB1 / Fold change vs veh, HSP90B1 /// MIR3652 / RFU, ADSS / Fold change vs veh, ADSS / RFU, GK / Fold change vs veh, GK / RFU, ZNF148 / Fold change vs veh, ZNF148 / RFU, TAF9 / Fold change vs veh, TAF9 / RFU, SLC1A5 / Fold change vs veh, SLC1A5 / RFU, SLMO2 / Fold change vs veh, SLMO2 / RFU, ABCC4 / Fold change vs veh, ABCC4 / RFU, LOC101060439 /// RAP1B / Fold change vs veh, LOC101060439 /// RAP1B / RFU, RFX7 / Fold change vs veh, RFX7 / RFU, GTPBP10 / Fold change vs veh, GTPBP10 / RFU, CNEP1R1 / Fold change vs veh, CNEP1R1 / RFU, BIVM-ERCC5 /// ERCC5 / Fold change vs veh, BIVM-ERCC5 /// ERCC5 / RFU, ILF3 / Fold change vs veh, ILF3 / RFU 11762660_at / Fold change /veh 11762660_at / RFU VCAN (11757783_s_at) / Fold change /veh VCAN (11757783_s_at) / RFU DDX43 (11728927_at) / Fold change /veh DDX43 (11728927_at) / RFU KRT8 (11758188_x_at) / Fold change /veh KRT8 (11758188_x_at) / RFU NKD1 (11759106_at) / Fold change /veh NKD1 (11759106_at) / RFU SRD5A1 (11742802_a_at) / Fold change /veh SRD5A1 (11742802_a_at) / RFU TPSAB1 /// TPSB2 (11721975_s_at) / Fold change /veh TPSAB1 /// TPSB2 (11721975_s_at) / RFU GSTM3 (11746129_a_at) / Fold change /veh GSTM3 (11746129_a_at) / RFU IL23R (11737362_x_at) / Fold change /veh IL23R (11737362_x_at) / RFU TMEM51 (11727254_a_at) / Fold change /veh TMEM51 (11727254_a_at) / RFU PIWIL2 (11732686_x_at) / Fold change /veh PIWIL2 (11732686_x_at) / RFU ORM1 (11744905_x_at) / Fold change /veh ORM1 (11744905_x_at) / RFU CCDC152 (11743942_at) / Fold change /veh CCDC152 (11743942_at) / RFU ECM1 (11717891_a_at) / Fold change /veh ECM1 (11717891_a_at) / RFU IL23R (11748794_a_at) / Fold change /veh IL23R (11748794_a_at) / RFU TNFAIP8L3 (11732012_x_at) / Fold change /veh TNFAIP8L3 (11732012_x_at) / RFU MBOAT4 (11741988_at) / Fold change /veh MBOAT4 (11741988_at) / RFU 11764193_at / Fold change /veh 11764193_at / RFU TMEM53 (11763286_at) / Fold change /veh TMEM53 (11763286_at) / RFU MAGEB2 (11727129_at) / Fold change /veh MAGEB2 (11727129_at) / RFU TMEM200A (11744735_a_at) / Fold change /veh TMEM200A (11744735_a_at) / RFU CCDC152 (11751479_a_at) / Fold change /veh CCDC152 (11751479_a_at) / RFU FAM211A (11726209_a_at) / Fold change /veh FAM211A (11726209_a_at) / RFU RGS16 (11746705_a_at) / Fold change /veh RGS16 (11746705_a_at) / RFU VCAN (11755009_s_at) / Fold change /veh VCAN (11755009_s_at) / RFU RHOB (11743442_s_at) / Fold change /veh RHOB (11743442_s_at) / RFU RGS16 (11720943_a_at) / Fold change /veh RGS16 (11720943_a_at) / RFU RGS16 (11720944_at) / Fold change /veh RGS16 (11720944_at) / RFU, VPS4B / Fold change vs veh, VPS4B / RFU, CREB1 / Fold change vs veh, CREB1 / RFU, DNAJC13 / Fold change vs veh, DNAJC13 / RFU, GNAQ / Fold change vs veh, GNAQ / RFU, CDK5R1 / Fold change vs veh, CDK5R1 / RFU, ZRANB3 / Fold change vs veh, ZRANB3 / RFU, CUL4A / Fold change vs veh, CUL4A / RFU, CCNY / Fold change vs veh, CCNY / RFU, UFL1 / Fold change vs veh, UFL1 / RFU, COG3 / Fold change vs veh, COG3 / RFU, DIAPH2 / Fold change vs veh, DIAPH2 / RFU, SKA2 / Fold change vs veh, SKA2 / RFU, AFF3 / Fold change vs veh, AFF3 / RFU, LMF1 / Fold change vs veh, LMF1 / RFU, IPO11 / Fold change vs veh, IPO11 / RFU, DFFB / Fold change vs veh, DFFB / RFU, FOXP1 / Fold change vs veh, FOXP1 / RFU, CARD8 / Fold change vs veh, CARD8 / RFU, STRN3 / Fold change vs veh, STRN3 / RFU, ADK / Fold change vs veh, ADK / RFU, RASSF2 / Fold change vs veh, RASSF2 / RFU, WIPF1 / Fold change vs veh, WIPF1 / RFU, LARP1B / Fold change vs veh, LARP1B / RFU, RASA1 / Fold change vs veh, RASA1 / RFU, RB1 / Fold change vs veh, RB1 / RFU, PPFIA1 / Fold change vs veh, PPFIA1 / RFU, MAT2A / Fold change vs veh, MAT2A / RFU, CCT5 / Fold change vs veh, CCT5 / RFU, WDR92 / Fold change vs veh, WDR92 / RFU, CUX1 / Fold change vs veh, CUX1 / RFU, TTC7A / Fold change vs veh, TTC7A / RFU, TMEM135 / Fold change vs veh, TMEM135 / RFU, DEPTOR / Fold change vs veh, DEPTOR / RFU, CPM / Fold change vs veh, CPM / RFU, DNAJB6 / Fold change vs veh, DNAJB6 / RFU, CACNA2D3 / Fold change vs veh, CACNA2D3 / RFU, DTX4 / Fold change vs veh, DTX4 / RFU, TFCP2 / Fold change vs veh, TFCP2 / RFU, GMCL1 /// GMCL1P1 / Fold change vs veh, GMCL1 /// GMCL1P1 / RFU, AEBP2 / Fold change vs veh, AEBP2 / RFU, SNHG1 /// SNORD22 /// SNORD25 /// SNORD26 /// SNORD27 /// SNORD28 /// SNORD29 /// SNORD31 / Fold change vs veh, SNHG1 /// SNORD22 /// SNORD25 /// SNORD26 /// SNORD27 /// SNORD28 /// SNORD29 /// SNORD31 / Fold change (Aza/veh), C12orf56 (ProbeSet 11735607_a_at) / Fold change (ACY-1035/veh), C12orf56 (ProbeSet 11735607_a_at) / Fold change (Aza/veh), FGFR1OP (ProbeSet 11751329_s_at) / Fold change (ACY-1035/veh), FGFR1OP (ProbeSet 11751329_s_at) / Fold change (Aza/veh), VPS36 (ProbeSet 11739960_a_at) / Fold change (ACY-1035/veh), VPS36 (ProbeSet 11739960_a_at) / RFU SYPL1 (11715823_x_at) / Fold change /veh SYPL1 (11715823_x_at) / RFU IGFBP7 (11715501_s_at) / Fold change /veh IGFBP7 (11715501_s_at) / RFU REEP3 (11722064_at) / Fold change /veh REEP3 (11722064_at) / RFU IGLL1 (11728026_x_at) / Fold change /veh IGLL1 (11728026_x_at): dose or concentration left out as unconfirmed
Conditions: ProbeSet 11717914_a_at; LIST B

## Nc1ccc(-c2cccs2)cc1NC(=O)c1ccc2c(c1)cc(C1CC1)n2CCN1CCOCC1 [ACY-1035]
  RFU, BIVM-ERCC5 /// ERCC5: 177.23 RFU
